Measured values from patent publication US20110144014A1, “CYTOKINE RECEPTOR MODULATORS AND USES THEREOF” (CENTRE HOSPITALIER UNIVERSITAIRE SAINTE-JUSTINE, priority 2005, published 2011).
Where a SMILES comes first, the peptide text is derived from it. [ ]: non-standard residue; d: D form.

What was measured:
IL-1R/IL-1RacP = molecular target: T1, IL-1R/IL-1RacP (Rattus norvegicus, UniProt Q02955+Q63621); test: PGE2 levels in rat blood serum after IL-1β; type: in vivo; conditions: peptide injected directly in the stomach
T1 construct: 300 g Sprague-Dawley rats were anesthetized with isoflurane; from tissue; host or cells: whole animal (Sprague-Dawley rat)
T1 sequence (Q02955 20-576): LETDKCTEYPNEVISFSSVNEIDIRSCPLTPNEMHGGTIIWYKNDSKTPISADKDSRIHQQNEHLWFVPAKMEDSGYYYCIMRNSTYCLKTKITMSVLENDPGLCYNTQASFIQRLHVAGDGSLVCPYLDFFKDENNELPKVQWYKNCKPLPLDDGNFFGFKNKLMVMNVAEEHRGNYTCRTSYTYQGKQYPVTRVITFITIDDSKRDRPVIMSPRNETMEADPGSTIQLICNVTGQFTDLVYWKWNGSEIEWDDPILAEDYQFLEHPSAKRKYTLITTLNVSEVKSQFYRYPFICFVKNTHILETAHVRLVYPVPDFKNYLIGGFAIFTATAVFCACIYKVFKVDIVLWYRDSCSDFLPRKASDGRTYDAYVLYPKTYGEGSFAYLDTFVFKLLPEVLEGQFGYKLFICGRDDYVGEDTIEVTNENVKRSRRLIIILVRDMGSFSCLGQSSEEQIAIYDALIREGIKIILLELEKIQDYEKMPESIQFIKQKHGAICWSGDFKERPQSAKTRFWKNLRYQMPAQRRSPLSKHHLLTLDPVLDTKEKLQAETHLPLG
T1 sequence (Q63621 21-570): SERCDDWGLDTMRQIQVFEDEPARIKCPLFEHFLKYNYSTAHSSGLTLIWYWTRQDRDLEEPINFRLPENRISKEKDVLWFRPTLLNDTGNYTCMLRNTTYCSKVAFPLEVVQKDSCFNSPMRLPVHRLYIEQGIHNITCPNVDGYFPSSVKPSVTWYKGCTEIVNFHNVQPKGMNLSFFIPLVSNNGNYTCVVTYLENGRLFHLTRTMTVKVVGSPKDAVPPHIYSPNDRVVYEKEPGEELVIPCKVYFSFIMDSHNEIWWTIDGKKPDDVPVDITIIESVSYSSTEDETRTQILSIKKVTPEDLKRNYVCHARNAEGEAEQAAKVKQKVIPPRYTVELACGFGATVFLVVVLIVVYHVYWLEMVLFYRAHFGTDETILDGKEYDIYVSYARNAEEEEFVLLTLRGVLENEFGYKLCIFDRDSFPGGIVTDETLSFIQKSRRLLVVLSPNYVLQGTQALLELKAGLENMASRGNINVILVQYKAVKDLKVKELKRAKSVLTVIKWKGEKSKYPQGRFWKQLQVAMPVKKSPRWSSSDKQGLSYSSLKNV
Procedure: Another way of assessing the effect of cytokine receptor subfragments on IL-1R activity in vivo is by measuring PGE2 levels in rat blood serum. Rat blood samples were collected from in vivo experiments (e.g., protocol for IL-1 induced hypotension) and centrifuged at maximum speed for 15 minutes. The serum was then passed through a Waters purification column to isolate the lipidic part. Samples were evaporated and PGE2 quantities were determined with a radioimmuno assay (RIA) using a commercial kit (Cederlane).
The API-101 derivatives, API-101.10 (and others) were also tested to assess whether they could reverse the physiological actions of the natural ligand in vivo by injecting the derivative through the jugular or directly into the stomach (to verify the stability of the peptide through the digestive tract). Sprague-Dawley rats (300 g) were anesthetized with isoflurane (2.5-4%). The natural ligand (IL-1β) or vehicle (saline) was injected through the jugular vein (5 μg/kg). […] Arterial blood pressure and heart rate were continuously monitored (Gould) while temperature and blood gases (Radiometer) were measured for routine analysis as previously described (Li et al., Am. J. Physiol. 273:R1283-R1290, 1997; Hardy et al., Pediatr. Res. 46:375-382, 1999; Najarian et al., Circ. Res. 87:1149-1156, 2000). […]

[1] = tested on: PMA-induced ear skin inflammation; test: PMA-induced skin dermatitis of rat ears; type: in vivo; conditions: topical
Procedure: To verify the efficacy of a topical application of API-101.10 in a skin model of inflammation, 10 μl of 0.05% (in acetone) of the irritating agent PMA was applied on ears of 5 weeks old CD-1 male […] (Charles River) to induce contact dermatitis. The right ear received the vehicle only and left ear received the peptide or IL-1Ra analog Kineret® (Amgen). Ten μl of a final concentration of 10^−5M peptide diluted in PEG was applied 45 minutes and 4 hours after the induction of the inflammation with PMA. The commercial analog of IL-1R antagonist (IL-Ra), Kineret® was applied as a positive control at a concentration of 50 μg/10 μl of PEG. The drug was applied with a pipet tip adapted for the viscosity of the solution. Eighteen hours after the peptide treatment animals were sacrificed and ears were cut, weighed and their […] was measured with a caliper. Ear tumefaction (%) was determined: […] where a=thickness of left treated ear and b=thickness of right control ear.

prevention of PGE2 synthesis in vivo (IL-1R/IL-1RacP): Higher inhibition
Structure (SMILES): CC(C)C[C@@H](NC(=O)[C@@H](CCC(=O)O)NC(=O)[C@H](NC(=O)[C@H](NC(=O)[C@@H](Cc1ccc(O)cc1)NC(=O)[C@H](N)CCCNC(=N)N)[C@H](C)O)C(C)C)C(=O)N[C@H](C)C(N)=O [API-101.10, RYTVELA] (H-[dR][dY][dT][dV][dE][dL][dA]-NH2; N-terminus and C-terminus assumed)
ear weight compared with PMA-induced inflamed ear ([1]; 10^−5M in PEG): reduction in weight
prevention of ear tumefaction ([1]; 10 μl of 10^−5M in PEG, 45 min and 4 h after PMA): 50%
